This is an account of results in ChEMBL document CHEMBL4420076, “Amylin and calcitonin receptor agonist” (2017).

Usually pEC50 stands for the negative decadic logarithm of the EC50, by convention in mol/L. As usually defined, the pIC50 is −log10 of the IC50, conventionally taken in molar units. One may read the solubility as the dissolved amount per volume that the medium holds.

pEC50, pIC50: −log10 of the molar value. Numbered stars: 1 amine (or outer) side, 2 acyl side, 3 side chain; on linkers, the order of the positions; unused ones are H or OH. Peptide text beside a SMILES is read from it. * marks the point of attachment. C20 diacid = O=C(O)CCCCCCCCCCCCCCCCCCC(=O)*; C16 diacid = O=C(O)CCCCCCCCCCCCCCC(=O)*; γGlu = O=C(O)[C@H](CCC(=O)[*:2])N[*:1] A value given as a limit tells only on which side of the number the result lay.

Data set [1] deals with T1, Amylin receptor AMY3; CALCR/RAMP3 (Homo sapiens, UniProt O60896+P30988).
T1 sequence (P30988 whole entry): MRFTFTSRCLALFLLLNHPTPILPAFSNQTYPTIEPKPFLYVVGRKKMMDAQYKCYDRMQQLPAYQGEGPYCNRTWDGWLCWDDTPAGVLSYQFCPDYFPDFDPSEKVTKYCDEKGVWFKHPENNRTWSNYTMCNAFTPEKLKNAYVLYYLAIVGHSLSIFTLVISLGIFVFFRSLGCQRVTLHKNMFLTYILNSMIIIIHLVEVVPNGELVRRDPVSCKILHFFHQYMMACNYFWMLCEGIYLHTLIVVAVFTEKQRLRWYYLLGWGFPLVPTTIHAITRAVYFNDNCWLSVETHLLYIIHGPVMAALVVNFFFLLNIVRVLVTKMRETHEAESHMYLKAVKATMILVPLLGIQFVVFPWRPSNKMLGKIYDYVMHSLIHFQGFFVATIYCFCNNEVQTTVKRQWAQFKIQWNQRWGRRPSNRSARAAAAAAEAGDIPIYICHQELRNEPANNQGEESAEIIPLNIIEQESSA
T1 sequence (O60896 whole entry): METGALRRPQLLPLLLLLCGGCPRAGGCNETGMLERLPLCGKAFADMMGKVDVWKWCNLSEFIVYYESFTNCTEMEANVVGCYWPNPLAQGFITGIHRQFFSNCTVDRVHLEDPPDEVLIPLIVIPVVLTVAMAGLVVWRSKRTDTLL
The data set is described as follows: Agonist activity at human amylin receptor expressed in BHK570 cells co-expressing RAMP3 assessed as increase in intracellular cAMP concentration incubated for 3 hrs in presence of 10% FBS by CRE luciferase reporter gene assay. The format is functional, cell-based. A general note: Reporter assays use an easily measured gene product as a stand-in for the process of interest.

Data set [2] has as its target T2, Calcitonin receptor (Homo sapiens, UniProt P30988).
T2 sequence (P30988 whole entry): T1 sequence (P30988 whole entry)
The data set is described as follows: Displacement of [125I]-labeled human calcitonin from human calcitonin receptor expressed in BHK tkts13 cell membranes incubated for 1 hr by scintillation proximity assay.

Data set [3] deals with Rattus norvegicus. The data set is described as follows: Reduction in food intake in Sprague-Dawley rat at 3 nmol/kg measured 24 to 48 hrs post dose relative to control. Also on record: scale not given: the % may be the effect or the level left. The format is functional.
Data set [4] can be described thus: Stability in pH 7.5 buffer assessed as lag time for fibril formation at 1 uM by Thioflavin T based fluorescence assay. In kind it is physicochemical. The note with it: pH 7.5, 1 µM.
Data set [5] in a line: Solubility in 100 mM bistrispropane buffer at pH 6.5 incubated for 18 hrs by UPLC analysis. The format is physicochemical.
Data set [6] in a line: Solubility in 100 mM bistrispropane buffer at pH 7.0 incubated for 18 hrs by UPLC analysis. In kind it is physicochemical.
Data set [7] has as its target T1, Amylin receptor AMY3; CALCR/RAMP3. The data set is described as follows: Agonist activity at human amylin receptor expressed in BHK570 cells co-expressing RAMP3 assessed as increase in intracellular cAMP concentration incubated for 3 hrs in absence of albumin by CRE luciferase reporter gene assay. The format is functional, cell-based.
Data set [8] can be described thus: Solubility in 100 mM glycylglycine buffer at pH 5.0 incubated for 18 hrs by UPLC analysis. The format is physicochemical.
Data set [9] concerns the target T2, Calcitonin receptor. Put plainly: Agonist activity at human calcitonin receptor expressed in BHK570 cells assessed as increase in intracellular cAMP concentration incubated for 3 hrs in presence of 10% FBS by CRE luciferase reporter gene assay. The format is functional, cell-based.
Data set [10] can be described thus: Solubility in 100 mM bistrispropane buffer at pH 6.0 incubated for 18 hrs by UPLC analysis. In kind it is physicochemical.
A short description of data set [11]: Solubility in 100 mM bistrispropane buffer at pH 8.0 incubated for 18 hrs by UPLC analysis. In kind it is physicochemical.
Data set [12] concerns Rattus norvegicus. The data set is described as follows: Reduction in food intake in Sprague-Dawley rat at 3 nmol/kg measured 0 to 24 hrs post dose relative to control. Also noted: scale not given: the % may be the effect or the level left. The format is functional.
The nature of data set [13]: Solubility in 100 mM bistrispropane buffer at pH 7.5 incubated for 18 hrs by UPLC analysis. The format is physicochemical.
Data set [14] concerns the target T3, Amylin receptor AMY3; CALCR/RAMP3 (Rattus norvegicus, UniProt P32214+Q9JJ73).
T3 sequence (P32214 whole entry): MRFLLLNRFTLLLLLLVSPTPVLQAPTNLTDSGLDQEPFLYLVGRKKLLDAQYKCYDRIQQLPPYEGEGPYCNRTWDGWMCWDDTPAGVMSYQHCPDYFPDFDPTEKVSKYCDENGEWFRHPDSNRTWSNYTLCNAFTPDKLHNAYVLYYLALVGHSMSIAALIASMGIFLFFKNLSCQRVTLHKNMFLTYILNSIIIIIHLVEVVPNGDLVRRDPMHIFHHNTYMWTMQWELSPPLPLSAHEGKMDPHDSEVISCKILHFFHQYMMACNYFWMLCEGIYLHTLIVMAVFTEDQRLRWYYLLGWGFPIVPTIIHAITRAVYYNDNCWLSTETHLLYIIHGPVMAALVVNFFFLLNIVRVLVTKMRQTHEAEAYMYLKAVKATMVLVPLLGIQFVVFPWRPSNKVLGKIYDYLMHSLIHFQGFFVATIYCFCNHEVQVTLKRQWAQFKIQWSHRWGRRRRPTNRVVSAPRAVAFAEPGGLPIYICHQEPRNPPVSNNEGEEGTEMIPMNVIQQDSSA
T3 sequence (Q9JJ73 whole entry): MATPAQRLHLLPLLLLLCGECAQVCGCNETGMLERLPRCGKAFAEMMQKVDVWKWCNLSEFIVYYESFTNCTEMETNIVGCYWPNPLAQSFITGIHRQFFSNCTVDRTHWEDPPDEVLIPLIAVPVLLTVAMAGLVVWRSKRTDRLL
The data set is described as follows: Displacement of [125I]-labeled rat amylin from rat amylin receptor expressed in BHK tkts13 cell membranes co-expressing RAMP3 incubated for 120 mins by scintillation proximity assay. (Displacement assays read how much labelled ligand stays bound in the presence of the test substance.)

The target of data set [15] is T2, Calcitonin receptor. The data set is described as follows: Agonist activity at human calcitonin receptor expressed in BHK570 cells assessed as increase in intracellular cAMP concentration incubated for 3 hrs in absence of albumin by CRE luciferase reporter gene assay. The format is functional, cell-based.
Data set [16] concerns the target T1, Amylin receptor AMY3; CALCR/RAMP3. The data set is described as follows: Displacement of [125I]-labeled rat amylin from human amylin receptor expressed in BHK570 cell membranes co-expressing RAMP3 incubated for 120 mins by scintillation proximity assay.
Data set [17] in a line: Solubility in 100 mM glycylglycine buffer at pH 3.0 incubated for 18 hrs by UPLC analysis. In kind it is physicochemical.
Data set [18] is described as follows: Stability in pH 7.5 buffer assessed as compound recovery at 1 uM by Thioflavin T based fluorescence assay. In kind it is physicochemical. The note with it: read-out: Drug recovery.
A short description of data set [19]: Solubility in 100 mM glycylglycine buffer at pH 4.0 incubated for 18 hrs by UPLC analysis. In kind it is physicochemical.

Consider `CC(C)C[C@H](NC(=O)[C@H](C)NC(=O)[C@H](C)NC(=O)[C@@H](NC(=O)[C@H](CO)NC(=O)[C@H](CC(C)C)NC(=O)[C@H](CCC(=O)O)NC(=O)[C@H](CO)NC(=O)[C@H](C)NC(=O)CC[C@H](NC(=O)CCCCCCCCCCCCCCC(=O)O)C(=O)O)[C@@H](C)O)C(=O)NCC(=O)N[C@@H](CCCNC(=N)N)C(=O)N[C@@H](CC(C)C)C(=O)N[C@@H](CO)C(=O)N[C@@H](C)C(=O)N[C@@H](CCC(=O)O)C(=O)N[C@@H](CC(C)C)C(=O)N[C@@H](Cc1cnc[nH]1)C(=O)N[C@@H](CCC(=O)O)C(=O)N[C@@H](CC(C)C)C(=O)N[C@@H](C)C(=O)N[C@H](C(=O)N[C@@H](CC(C)C)C(=O)N1CCC[C@H]1C(=O)N[C@@H](CCCNC(=N)N)C(=O)N[C@H](C(=O)N[C@@H](CCC(=O)O)C(=O)N[C@H](C(=O)NCC(=O)N[C@@H](CO)C(=O)NCC(=O)N[C@@H](CO)C(=O)N1CCC[C@H]1C(N)=O)[C@@H](C)O)[C@@H](C)O)[C@@H](C)O` ({C16 diacid-γGlu}-ASELSTAALGRLSAELHELATLPRTETGSGSP-NH2), for which the pEC50 was 11.40 in data set [1], 10.74 in data set [7], 11.70 on Calcitonin receptor [9] and 10.82 at Calcitonin receptor [15]. Further, the figures for the pIC50 (at Calcitonin receptor [2]; in data set [14]; in data set [16]) were 10.62, 10.66 and 10.43, respectively. Besides, the Activity with Rattus norvegicus [3] turned out to be 10%; with Rattus norvegicus [12], 66%. Besides, in data set [4], the Time was more than 45 h. The solubility at 18 h in data set [5], in [6], in data set [8], in data set [10], in [11] and in data set [13] was not below 200 µM in each case. Besides, the solubility at 18 h in data set [17] and in data set [19] was not below 200 µM in each case. Besides, the remaining at 1 µM in [18] was determined as 100%.
`CC(C)C[C@H](NC(=O)CNC(=O)[C@H](CO)NC(=O)[C@H](C)NC(=O)CC[C@H](NC(=O)CCCCCCCCCCCCCCCCCCC(=O)O)C(=O)O)C(=O)N[C@@H](CO)C(=O)N[C@H](C(=O)N[C@@H](C)C(=O)N[C@@H](C)C(=O)N[C@@H](CC(C)C)C(=O)NCC(=O)N[C@@H](CCCNC(=N)N)C(=O)N[C@@H](CC(C)C)C(=O)N[C@@H](CO)C(=O)N[C@@H](CCC(N)=O)C(=O)N[C@@H](CCC(=O)O)C(=O)N[C@@H](CC(C)C)C(=O)N[C@@H](Cc1cnc[nH]1)C(=O)N[C@@H](CCC(=O)O)C(=O)N[C@@H](CC(C)C)C(=O)N[C@@H](CCC(N)=O)C(=O)N[C@H](C(=O)N[C@@H](Cc1ccc(O)cc1)C(=O)N1CCC[C@H]1C(=O)N[C@@H](CCCNC(=N)N)C(=O)N[C@H](C(=O)N[C@@H](CCC(=O)O)C(=O)N[C@H](C(=O)NCC(=O)N[C@@H](CO)C(=O)N[C@@H](CCC(N)=O)C(=O)N[C@H](C(=O)N[C@@H](Cc1ccc(O)cc1)C(N)=O)[C@@H](C)O)[C@@H](C)O)[C@@H](C)O)[C@@H](C)O)[C@@H](C)O` ({C20 diacid-γGlu}-ASGLSTAALGRLSQELHELQTYPRTETGSQTY-NH2): the pIC50 at Calcitonin receptor [2] was 10.29; in [14], 10.11; in [16], 9.88. Moreover, the Activity with Rattus norvegicus [3] came out at 42%; in the data set on Rattus norvegicus [12], 40%. The Time in [4] is more than 45 h. Further, the solubility at 18 h in [5], in data set [6], in data set [10], in data set [11], in data set [13] and in data set [17] was not below 200 µM each time. The compound further came in with a solubility at 18 h in data set [19] not below 200 µM. Further, the negative logarithm of the EC50 (pEC50) is 10.43 in data set [7], 9.97 at Calcitonin receptor [9] and 10.60 on Calcitonin receptor [15]. Also, in data set [18], the remaining at 1 µM was determined as 100%.
On to `CC(C)C[C@H](NC(=O)CNC(=O)[C@H](CO)NC(=O)[C@H](C)NC(=O)CC[C@H](NC(=O)CCCCCCCCCCCCCCCCCCC(=O)O)C(=O)O)C(=O)N[C@@H](CO)C(=O)N[C@H](C(=O)N[C@@H](C)C(=O)N[C@H](C(=O)N[C@@H](CC(C)C)C(=O)NCC(=O)N[C@@H](CCCNC(=N)N)C(=O)N[C@@H](CC(C)C)C(=O)N[C@@H](CO)C(=O)N[C@@H](CCC(N)=O)C(=O)N[C@@H](CCC(=O)O)C(=O)N[C@@H](CC(C)C)C(=O)N[C@@H](Cc1cnc[nH]1)C(=O)N[C@@H](CCC(=O)O)C(=O)N[C@@H](CC(C)C)C(=O)N[C@@H](CCC(N)=O)C(=O)N[C@H](C(=O)N[C@@H](Cc1ccc(O)cc1)C(=O)N1CCC[C@H]1C(=O)N[C@@H](CCCNC(=N)N)C(=O)N[C@H](C(=O)N[C@@H](CCC(=O)O)C(=O)N[C@H](C(=O)NCC(=O)N[C@@H](CO)C(=O)N[C@@H](CCC(N)=O)C(=O)N[C@H](C(=O)N[C@@H](Cc1ccc(O)cc1)C(N)=O)[C@@H](C)O)[C@@H](C)O)[C@@H](C)O)[C@@H](C)O)C(C)C)[C@@H](C)O` ({C20 diacid-γGlu}-ASGLSTAVLGRLSQELHELQTYPRTETGSQTY-NH2), for which the negative-log IC50 (pIC50) at Calcitonin receptor [2] is 10.17; in data set [14], 10.28; in data set [16] it was 9.82. Moreover, the Activity in the data set with Rattus norvegicus [3] was determined as 29%; in the data set with Rattus norvegicus [12] it was 25%. In [4], the Time stood at 1.5 h. In addition, the solubility at 18 h in data set [5], in data set [6], in data set [10], in data set [11], in [13] and in [17] was not below 200 µM in each case. For the same compound, the negative-log EC50 (pEC50) was 10.14 in [7], 10.21 at Calcitonin receptor [9] and 10.31 at Calcitonin receptor [15]. The remaining at 1 µM in data set [18] turned out to be 39.5%.
